Marks after values point to notes of the source that are not given here.
How the values were obtained:
Type in all cases: in vivo, rat
[1] = test system: heme oxygenase-1 (HO-1) expression; assay: 14-day UUO model: RT-PCR for HO-1
Description: (§1) Sprague-Dawley rats underwent unilateral ureteral ligation (UUO) with 4-0 silk suture through a midline abdominal incision under sterile conditions. Ureteral obstruction was carried out by ligating the left ureter at the end of lower ureter, just above the ureterovesical junction.
(§2) SS-31 (1 mg/kg or 3 mg/kg; n=8) was administered intraperitoneally, one day prior to UUO and continuing for 14 days. A separate group of animals was given saline, as a vehicle control (n=16).
Polymerase Chain Reaction Analysis: PCR for heme oxygenase-1 (HO-1) isolated from kidneys was performed as follows. Rat kidneys were harvested and were kept at −80° C. until use. Total RNA was extracted using the Trizol®-Chloroform extraction procedure. mRNA was purified using the Oligotex mRNA extraction kit (Qiagen, Valencia, Calif.) according to manufacturer's instructions. mRNA concentration and purity were determined by measuring absorbance at 260 nm. RT-PCR was preformed using Qiagen One-step PCR kit (Qiagen, Valencia, Calif.). PCR was performed in an automated thermal cycler ThermoHybrid, PX2 with an initial activation step for 15 min at 95° C. followed by 35 cycles of denaturation for 45 s at 94° C., annealing for 30 s at 60° C., extension for 60 s at 72° C. […] Bands on gels were visualized by ethidium bromide staining and analyzed using Image J densitometric analysis software. […]

[2] = test system: renal mitochondria; assay: I/R model: respiration of isolated renal mitochondria; settings: after 45 min ischemia, pretreatment
Description: Results. The effects of the aromatic-cationic peptides of the invention on a model of ARI caused by ischemia-reperfusion were investigated. Renal mitochondria were isolated in accordance with the procedures described above and oxygen consumption was measured.
State 3 respiration was initiated with the addition of ADP.

[3] = test system: ARI caused by ureteral obstruction (UUO); assay: 14-day UUO model: immunohistochemistry and TUNEL
Description: as §1, §2
Immunohistochemical Analysis: Immunohistochemical staining for macrophages was carried out using a monoclonal antibody to ED-1 (Serotec) as previously described. Macrophages were counted in 10 high-power fields (×400) by two different independent investigators in a blinded fashion. The TUNEL assay was performed as described in Example 1. The presence of fibroblasts was examined using immunohistochemistry, as described in Example 1. The antibody utilized was DAKO #S100-A4 (1:100 dilution). The S100-A4 antigen is also known as FSP-1 (fibroblast specific protein). Antigen was retrieved by incubating cells with Proteinase K for 20 min in an oven. The remaining immunoperoxidase protocol was carried out according to routine procedures. Staining for S100-A4 was found in spindle-shaped interstitial cells, and also in cells which were round, and were identified as inflammatory cells by the pathologist. Only spindle-shaped cells were included in the counts. […] 8-OH dG staining was carried using Proteinase K for antigen retrieval. The antibody used was from the Japan Institute Control of Aging, and was used at a dilution of 1:200-1:500.

[4] = test system: radiocontrast dye-induced renal failure; assay: CIN, indomethacin/L-NAME model, Experiment 2
Description: Animal model: The same indomethacin and L-NAME model described above was used in this experiment. In this model, impaired renal function was induced by the administration of indomethacin (8 mg/kg) and L-NAME (10 mg/kg).
Renal function: Renal function was assessed by determining serum and urinary creatinine using DICT-kit from Bioassays Systems (Hayward, Calif.) at baseline and 26 h following dye administration. Urinary protein concentration was also determined at baseline and 26 h following dye administration by BCA Protein Assay kit (Thermo Scientific, Rockford, Ill.). Samples were analyzed by students t-test and differences were considered significant at p<0.05.
Renal Histology: Kidneys were fixed in 10% neutral-buffered formalin and embedded in paraffin wax. Three micron sections were stained with hematoxylin-eosin (H&E) and periodic acid-Schiff (PAS) and analyzed by light microscopy by a board certified pathologist.

[5] = test system: CCl4 induced chronic nephrotoxicity; assay: CCl4 chronic kidney injury model: renal histology; settings: 10 mg/kg s.c. 5 days a week for 7 wks
Source text: Study design and experimental protocol: In this model, SD rats with body weight of 250 g were fed with 0.35 g/L phenobarbital solution (Luminal water) for two weeks, then divided into three groups and treated as follows.
At the end of fifth week, four rats from each group were sacrificed for liver histopathological sectioning and fibrosis examination. In the end of 7th week, all remaining rats in each group were sacrificed, and kidney and liver tissues were harvest for histopathological sectioning and examination.
Renal Histology: Kidneys were fixed in 10% neutral-buffered formalin and embedded in paraffin wax. Three micron sections were stained with hematoxylin-eosin (H&E) and analyzed by light microscopy by a certified pathologist.

[6] = test system: ARI caused by ischemia-reperfusion (I/R); assay: I/R model of ARI: BUN and serum creatinine; settings: 45 min ischemia and 24 h reperfusion; 3 mg/kg 30 min before ischemia and before reperfusion
Description: Sprague Dawley rats (250˜300 g) were assigned to four groups: (1) sham surgery group without I/R; (2) I/R+saline vehicle treatment; (3) I/R+SS-20 treatment; (4) I/R+SS-31 treatment. Each experimental group consisted of 8 rats. SS-20 and SS-31 (3 mg/kg, dissolved in saline) were administered to rats 30 min before ischemia and immediately before onset of reperfusion. The control rats were given saline alone on the same schedule.
Rats were anesthetized with a mixture of ketamine (90 mg/kg, i.p.) and xylazine (4 mg/kg, i.p.). The left renal vascular pedicle was occluded temporarily using a micro-clamp for 30 or 45 min. At the end of the ischemic period, reperfusion was established by removing of the clamp. At that time, the contralateral right kidney was removed. After 24 h reperfusion, animals were sacrificed and blood samples were obtained by cardiac puncture. Renal function was determined by blood urea nitrogen (BUN) and serum creatinine (BioAssay Systems DIUR-500 and DICT-500).
BUN and serum creatinine were assayed using kits from BioAssay Systems (DIUR-500 and DICT-500). […] The # indicates p<0.05 from the IR=saline group.

[7] = 26 h post contrast dye vs baseline

With D-Arg-2′6′Dmt-Lys-Phe-NH2 [SS-31] the “HO-1 expression in the obstructed kidney” value [1] was “decreased HO-1 expression”, the “renal mitochondrial oxygen consumption (state 3 respiration)” value [2] was “significantly improved oxygen consumption” and the “fibroblast infiltration (FSP-1) in the OK” value ([3]; 1 mg/kg) was 43.4 % of control. For the same substance, the “tubular apoptosis (TUNEL)” value ([3]; 1 mg/kg) was 5.1±0.5 cells per HPF, the “tubular proliferation (PCNA), increase” value ([3]; 1 mg/kg) was 2 fold and the “fibroblast infiltration (FSP-1) in the OK” value ([3]; 3 mg/kg) was 28.0 % of the untreated OK. For the same substance, the “renal tubular apoptosis (TUNEL)” value ([3]; 3 mg/kg) was 3.0±0.3 apoptotic cells/HPF, the “tubular proliferation (PCNA), increase” value ([3]; 3 mg/kg) was 3.5 fold and the “macrophage infiltration into the OK (ED-1)” value ([3]; 1 and 3 mg/kg) was “significantly decreased macrophage infiltration”. For the same substance, the “8-OH dG positive cells/HPF” value ([3]; obstructed kidney) was “significantly reduced”, the SCr ([4]; 1 day (26 h post dye)) was 0.73 ± 0.04 mg/dL and the “U protein BCA” value ([4]; 1 day (26 h post dye)) was 11.76 ± 2.71 mg/mL. For the same substance, the Ucr ([4]; 1 day (26 h post dye)) was 38.12 ± 8.19 mg/dL, the Scr increase [4, 7] was 9% and the “urinary protein concentration increase” value [4, 7] was 1.7 fold. For the same substance, the “rats protected from contrast dye induced nephropathy (Scr increase less than 25% at 26 h post dye)” value ([4]; 26 h post dye) was “Five out of seven”, the SCr ([4]; Baseline) was 0.67 ± 0.09 mg/dL and the “U protein BCA” value ([4]; Baseline) was 4.28 ± 1.15 mg/mL. The Ucr ([4]; Baseline) was 15.54 ± 3.87 mg/dL, the “PAS staining of kidney” value ([4]; dye-injected) was “intact brush borders and normal glomeruli” and the “renal histology (H&E)” value [5] was “no observable histopathological change”. For the same substance, the BUN [6] was 113.8 ± 11.4# mg/dl and the “serum creatinine” value [6] was 1.05 ± 0.16# mg/dl.

Source: patent US11628198B2, “Methods for prevention and treatment of acute renal injury” (Cornell University, priority 2008, dated 2023)
